Values after ≈ are worked out from the molar mass of the structure shown. Read-outs that look alike come from different tables or passages of the source.
How the values were obtained:
E. coli DSM 30083 = assay: Antimicrobial microtiter plate MIC assay, E. coli; type: cell-based, Escherichia coli; settings: Mueller Hinton broth, 16–18 h at 37 °C
Protocol: (§1) The fungus Candida albicans was used as a non-bacterial reference organism. The broad-spectrum antibiotic Ciprofloxacin was used as a reference drug.
(§2) Compounds were tested in a microtiter plate assay according to CLSI guidelines against E. coli DSM 30083, A. baumannii DSM 30007, P. aeruginosa DSM 50071, B. subtilis DSM 402, S. aureus DSM 20231, S. aureus ATCC 43300 (MRSA), and C. albicans, as described previously. E. coli, A. baumannii, S. aureus, and B. subtilis were grown in Mueller Hinton broth, P. aeruginosa in cation-adjusted Mueller Hinton II, and C. albicans DSM1386 in Sabouraud broth. Compounds were dissolved in DMSO at 10 mg/mL. Starting from a 10 mg/mL stock solution, serial dilutions in culture media were prepared with the Tecan Freedom Evo 75 liquid handling workstation (Tecan, Männedorf, Switzerland), covering a range from 512 to 0.5 µg/mL. Assay volumes were 200 µL per well. After inoculating with 5 × 10^5 bacteria/mL from late exponential cultures grown in the same media, cultures were incubated for 16–18 h at 37 °C. The lowest compound concentration inhibiting visible bacterial growth was recorded as MIC.

A. baumannii DSM 30007 = assay: Antimicrobial microtiter plate MIC assay, A. baumannii; type: cell-based, Acinetobacter baumannii; settings: Mueller Hinton broth, 16–18 h at 37 °C
Protocol: as §1, §2

P. aeruginosa DSM 50071 = assay: Antimicrobial microtiter plate MIC assay, P. aeruginosa; type: cell-based, Pseudomonas aeruginosa; settings: cation-adjusted Mueller Hinton II, 16–18 h at 37 °C
Protocol: as §1, §2

B. subtilis 168 = assay: Antimicrobial microtiter plate MIC assay, B. subtilis; type: cell-based, Bacillus subtilis; settings: Gram-positive, B. subtilis 168 (DSM 402), Mueller Hinton broth, 16–18 h at 37 °C
Protocol: as §1, §2

S. aureus DSM 20231 = assay: Antimicrobial microtiter plate MIC assay, S. aureus DSM 20231; type: cell-based, Staphylococcus aureus; settings: Mueller Hinton broth, 16–18 h at 37 °C
Protocol: as §1, §2

[1] = test system: S. aureus ATCC 43300 (MRSA); assay: Antimicrobial microtiter plate MIC assay, S. aureus ATCC 43300 (MRSA); type: cell-based, Staphylococcus aureus; settings: Gram-positive, Mueller Hinton broth, 16–18 h at 37 °C
Protocol: as §1, §2

C. albicans DSM 1386 = assay: Antimicrobial microtiter plate MIC assay, C. albicans; type: cell-based, Candida albicans; settings: Sabouraud broth
Protocol: as §1
E. coli, A. baumannii, S. aureus, and B. subtilis were grown in Mueller Hinton broth, P. aeruginosa in cation-adjusted Mueller Hinton II, and C. albicans DSM1386 in Sabouraud broth. Compounds were dissolved in DMSO at 10 mg/mL. […] Assay volumes were 200 µL per well. After inoculating with 5 × 10^5 bacteria/mL from late exponential cultures grown in the same media, cultures were incubated for 16–18 h at 37 °C. The lowest compound concentration inhibiting visible bacterial growth was recorded as MIC.

E. coli TrxR = molecular target: T1, E. coli TrxR (Escherichia coli, UniProt P0A9P4); assay: Inhibition of bacterial TrxR (E. coli), 5,5-dithiobis-(2-nitrobenzoic acid) reduction assay; type: biochemical
T1 construct: purchased Merck (Darmstadt, Germany)
Protocol: The inhibition of TrxR has been considered as a novel mode of action for antibiotics and in our previous report, the relevance for gold NHC complexes had been shown.
The TrxR (E. coli) inhibition assay was performed according to a previously published procedure. It is partly based on the procedure developed by Lu et al. and detects the formation of 5-TNB (5-thionitrobenzoic acid). Solutions of E. coli TrxR (35.4 U/mL) and of its substrate thioredoxin (Trx) E. coli (156 µg/mL) (both purchased from Merck (Darmstadt, Germany) and diluted with distilled water) and fresh stock solutions of the test compounds (in DMF) were prepared. TE buffer (Tris-HCl 50 mM, EDTA 1 mM, pH 7.5) containing graded concentrations of the respective compounds (20 µL) or buffer without compounds (20 µL, as control) were mixed with TrxR solution (10 µL), Trx solution (10 µL), and a solution of NADPH (200 µM) in TE buffer (100 µL) in a well on a 96-well plate. As blank solution, 200 µM NADPH in TE buffer (100 µL) mixed with a DMF/buffer mixture (40 µL) was used (final concentrations of DMF: 0.5% v/v). The solutions on the 96-well plates were incubated for 75 min at 25 °C with moderate shaking. […] The highest test compound concentration was used and the enzyme solution was replaced by TE buffer for this purpose.

[2] = Escherichia coli, DSM30083, Gram-negative
[3] = Acinetobacter baumannii, DSM30007, Gram-negative
[4] = Pseudomonas aeruginosa, DSM50071, Gram-negative
[5] = Staphylococcus aureus, DSM20231, Gram-positive
[6] = Candida albicans, DSM1386, fungus
[7] = purified E. coli TrxR, DTNB reduction, 75 min preincubation at 25 °C, mean (±SD) of three experiments, read-out: IC50 inhibition of E. coli TrxR

T1 sequence (P0A9P4 whole entry): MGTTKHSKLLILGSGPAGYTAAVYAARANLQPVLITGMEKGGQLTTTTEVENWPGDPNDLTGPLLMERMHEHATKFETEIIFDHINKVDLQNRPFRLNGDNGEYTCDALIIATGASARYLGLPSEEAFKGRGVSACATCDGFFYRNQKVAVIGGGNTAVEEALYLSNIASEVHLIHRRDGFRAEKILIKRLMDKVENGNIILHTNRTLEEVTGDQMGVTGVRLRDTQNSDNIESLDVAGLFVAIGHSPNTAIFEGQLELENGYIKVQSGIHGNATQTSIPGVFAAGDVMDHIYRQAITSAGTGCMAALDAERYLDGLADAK

Row | Compound | MIC (E. coli DSM 30083; Gram-negative) [µM] | MIC (A. baumannii DSM 30007; Gram-negative) [µM] | MIC (P. aeruginosa DSM 50071; Gram-negative) [µM] | MIC (B. subtilis 168) [µM] | MIC (S. aureus DSM 20231; Gram-positive) [µM] | MIC [1] [µM] | MIC (C. albicans DSM 1386; fungus) [µM] | MIC (E. coli DSM 30083; [2]) [µM] | MIC (A. baumannii DSM 30007; [3]) [µM] | MIC (P. aeruginosa DSM 50071; [4]) [µM] | MIC (B. subtilis 168; Bacillus subtilis, DSM402) [µM] | MIC (S. aureus DSM 20231; [5]) [µM] | MIC ([1]; Staphylococcus aureus) [µM] | MIC (C. albicans DSM 1386; [6]) [µM] | IC50 (E. coli TrxR) [µM] | IC50 (E. coli TrxR; [7]) [µM]
1 | 1,3-Dibenzyl-5-methoxy-1H-benzimidazolium bromide [2c] | 1250.8 | 1250.8 | 1250.8 | 78.2 | 19.5 | 19.5 | 1250.8 | – | – | – | – | – | – | – | – | –
2 | Cc1ccc(C(C)C)cc1.Fc1ccc2c(c1)n(Cc1ccccc1)[c](=[Ru]([Cl])[Cl])n2Cc1ccccc1 [3d, (1,3-Dibenzyl-5-fluoro-1H-benzimidazol-2-ylidene)-dichlorido-(η^6-p-cymene)ruthenium(II)] | 822.4 | 205.6 | >822.4 | 25.7 | 25.7 | 25.7 | >822.4 | – | – | – | – | – | – | – | – | –
3 | Brc1ccc2c(c1)n(Cc1ccccc1)c[n+]2Cc1ccccc1 [2f, 1,3-Dibenzyl-5-bromo-1H-benzimidazolium bromide] | – | – | – | – | – | – | – | > 1120 | > 1120 | > 1120 | 279 | 140 | 69.8 | > 1120 | > 100 | –
4 | Cc1ccc(C(C)C)cc1.[Cl][Ru]([Cl])=[c]1n(Cc2ccccc2)c2ccc(Br)cc2n1Cc1ccccc1 [3f, (1,3-Dibenzyl-5-bromo-1H-benzimidazol-2-ylidene)-dichlorido-(η^6-p-cymene)ruthenium(II)] | 374.6 | >749.1 | >749.1 | 11.7 | 23.4 | 11.7 | >749.1 | – | – | – | – | – | – | – | – | > 100
5 | Cc1ccc2c(c1)n(Cc1ccccc1)c[n+]2Cc1ccccc1 [2b, 1,3-Dibenzyl-5-methyl-1H-benzimidazolium bromide] | – | – | – | – | – | – | – | 1300 | 1300 | 1300 | 651 | 81.4 | 163 | 1300 | > 100 | –
6 | c1ccc(Cn2c[n+](Cc3ccccc3)c3ccccc32)cc1 [2a] | – | – | – | – | – | – | – | 1350 | 1350 | 1350 | 169 | 42.2 | 42.2 | 1350 | – | > 100
7 | O=C(O)c1cn(C2CC2)c2cc(N3CCNCC3)c(F)cc2c1=O [Ciprofloxacin, reference compound] | – | – | – | – | – | – | – | 1.5 (≈ 0.497 µg/mL) | 24 (≈ 7.95 µg/mL) | 1.2 (≈ 0.398 µg/mL) | 24 (≈ 7.95 µg/mL) | 12 (≈ 3.98 µg/mL) | 12 (≈ 3.98 µg/mL) | – | – | –
8 | Cc1ccc(C(C)C)cc1.Clc1ccc2c(c1)n(Cc1ccccc1)[c](=[Ru]([Cl])[Cl])n2Cc1ccccc1 [3e, (1,3-Dibenzyl-5-chloro-1H-benzimidazol-2-ylidene)-dichlorido-(η^6-p-cymene)ruthenium(II)] | 401.2 | >802.4 | >802.4 | 25.1 | 25.1 | 12.5 | >802.4 | – | – | – | – | – | – | – | – | –
9 | Cc1ccc(C(C)C)cc1.Cc1ccc2c(c1)n(Cc1ccccc1)[c](=[Ru]([Cl])[Cl])n2Cc1ccccc1 [3b, (1,3-Dibenzyl-5-methyl-1H-benzimidazol-2-ylidene)-dichlorido-(η^6-p-cymene)ruthenium(II)] | 827.7 | 413.8 | 413.8 | 25.9 | 25.9 | 25.9 | >827.7 | – | – | – | – | – | – | – | – | 14
10 | COc1ccc2c(c1)n(Cc1ccccc1)[c](=[Ru]([Cl])[Cl])n2Cc1ccccc1.Cc1ccc(C(C)C)cc1 [3c, (1,3-Dibenzyl-5-methoxy-1H-benzimidazol-2-ylidene)-dichlorido-(η^6-p-cymene)ruthenium(II)] | >806.8 | >806.8 | >806.8 | 25.2 | 25.2 | 25.2 | >806.8 | – | – | – | – | – | – | – | – | –
11 | 1,3-Dibenzyl-5-fluoro-1H-benzimidazolium bromide [2d] | 1288.7 | >1288.7 | >1288.7 | 322.2 | 161.1 | 161.1 | >1288.7 | – | – | – | – | – | – | – | – | –
12 | 1,3-Dibenzyl-5-chloro-1H-benzimidazolium bromide [2e] | 1242.6 | 1242.6 | 1242.6 | 155.3 | 77.7 | 77.7 | 1242.6 | – | – | – | – | – | – | – | – | –

From article PMC8303947, “Evaluation of Ruthenium(II) N-Heterocyclic Carbene Complexes as Antibacterial Agents and Inhibitors of Bacterial Thioredoxin Reductase” (Molecules, 2021)
